Several values for one entry are separate records, joined by “and”; a condition that tells them apart may be missing. Equal entries are not always repeated. Where two headings read alike, the source gives them in different places.
Tests used:
Hb [1] = target: T1, Hb (Homo sapiens, UniProt P69905); assay: Oxygen equilibrium curve; assay type: biochemical; conditions: 2 mM; SS blood lysates; relative to untreated controls
Hb [2] = target: T1, Hb; assay: Hb modification; assay type: binding; conditions: 2 mM; SS blood lysates; percentage fraction of total Hb area
Hb [3] = target: T1, Hb; assay: Time-dependent Hb oxygen equilibrium; assay type: biochemical; conditions: at 3 h; 2 mM; normal whole blood, hematocrit 20%, 37 °C
[4] = test system: human cytochrome P450 (CYP) enzymes; assay: CYP inhibition panel of seven CYP enzymes, pooled human liver microsomes; assay type: in vitro ADME; conditions: CYP1A2, CYP2C8, CYP2C9, CYP2C19, CYP2D6, CYP3A4, CYP2B6; 0.1–100 µM
[5] = cited from earlier work
[6] = cited from earlier work; remark: listed apart in the source

Compound | % P50 shift (Hb [1]) | % Hb modification (Hb [2]) [%] | P50 shift (Hb [3]) [%] | inhibition of liver CYP isozymes [4] | half‐life [5] [h] | aq. solubility ([6]; at 25 °C, ref PubChem CID 237,332) | aq. solubility ([6]; in water at 25 °C) [µg/mL]
O=Cc1ccc(CO)o1 [5‐HMF, 5‐hydroxymethylfurfural] | 27% and 27.2 ± 4.9% | 33.8 ± 11.7 | 35 | no inhibition | < 2.2 | ≈ 400 mg mL^−1 | 
CC(C)n1nccc1-c1ncccc1COc1cccc(O)c1C=O [Voxelotor] |  |  |  |  | > 50 |  | < 100

Source: article PMC12640667 (Chemmedchem, 2025)
